# In patent US20240415918A1, “Polypeptide and its use as a CCK receptor agonist/antagonist” (Centre for Regenerative Medicine & Health, Hong Kong …, priority 2021, published 2024):
# *1 amine or outer side, *2 acyl side, *3 side chain or, on linkers, in order; H or OH if unused. Where a SMILES comes first, the peptide text is derived from it. [ ]: non-standard residue; d: D form. The star is where a group is joined. NMeW = CN[C@@H](Cc1c[nH]c2ccccc12)C(=O)O; Phe(3-Br) = N[C@@H](Cc1cccc(Br)c1)C(=O)O; Fmoc = O=C(OCC1c2ccccc2-c2ccccc21)*; Palmitoyl = CCCCCCCCCCCCCCCC(=O)*; NMeNle = CCCC[C@H](NC)C(=O)O; Suc = O=C(CCC(=O)[*:2])[*:1]; Nle = CCCC[C@H](N)C(=O)O
# Columns and labels:
# [1] = biological target: T1, CCK-B receptors (CHO-CCK) (Homo sapiens, UniProt P32239); assay: Calcium flux (Fluo-8) agonist test on CHO-CCK model cells; type: cell-based; details: CHO-CCK cells
# T1 construct: expressed in transfected cells; host or cells: CHO (CHO-CCK model cells)
# T1 sequence (P32239 1-447): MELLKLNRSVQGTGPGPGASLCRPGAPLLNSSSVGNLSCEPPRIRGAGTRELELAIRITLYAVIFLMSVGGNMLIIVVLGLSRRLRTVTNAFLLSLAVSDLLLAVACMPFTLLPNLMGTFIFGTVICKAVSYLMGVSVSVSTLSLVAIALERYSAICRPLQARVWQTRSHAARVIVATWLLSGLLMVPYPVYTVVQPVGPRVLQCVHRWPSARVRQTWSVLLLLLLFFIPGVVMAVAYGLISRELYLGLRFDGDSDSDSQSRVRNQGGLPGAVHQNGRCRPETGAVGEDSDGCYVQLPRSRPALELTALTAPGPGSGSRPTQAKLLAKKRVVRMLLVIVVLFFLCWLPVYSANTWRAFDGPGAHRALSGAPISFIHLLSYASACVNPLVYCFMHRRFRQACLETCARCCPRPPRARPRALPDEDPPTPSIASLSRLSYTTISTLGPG
# How it was run: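 Agonist-mode Fluo-8 calcium flux read on CHO-CCK cells after dye loading 30 min at 37 °C plus 30 min at room temperature.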
# [2] = biological target: T1, CCK-B receptors (CHO-CCK); assay: Calcium flux (Fluo-8) antagonist test on CHO-CCK model cells in presence of CCK8; type: cell-based
# Description: The compound was formulated to a 10 mM mother liquor with DMSO, and then diluted into a series of 9 concentrations with a 3-fold gradient to form a 1000× stock solution. […] Prepare 1×Fluo-8 analysis buffer: mix 9 mL of HHBS, 1 mL of 10× Pluronic F127 Plus and 20 μL of Fluo-8 thoroughly for later use. • 3. Add Fluo-8 dye working solution to the cell plate, 100 μL/well. First incubate in a 37° C. incubator for 30 min, and then take it out and incubate at room temperature in the dark for 30 min. • 4. In the process of incubating cells, the compounds to be detected were prepared with HHBS. • 5. […] The agonism/antagonism EC50 of the compound can be obtained by plotting the fitting curve with the agonism/antagonism percentage as Y-axis and the concentration of the compound as X-axis.
# [3] = compound alone, 100% = 20 nM CCK8
# [4] = compound together with 10 nM CCK8
# [5] = Fluo-8 calcium flux, 100% control = 20 nM CCK8
SMILES,"EC50 [2, 4] [µM]","EC50 [1, 5] [µM]",EC50 ([2]; in presence of 10 nM CCK8) [µM],other results
"CSCC[C@H](NC(=O)[C@@H](Cc1c[nH]c2ccccc12)NC(C)=O)C(=O)N[C@@H](CCCCN)C(=O)N[C@@H](Cc1cccc(Br)c1)C(N)=O [HT-188, Ac-D-Trp-Met-Lys-Phe(3-Br)-NH2] (Ac-[dW]MK[Phe(3-Br)]-NH2)",7.55,,,"EC50 [1, 3]: 1.84 µM"
"CSCC[C@H](NC(=O)[C@@H](Cc1c[nH]c2ccccc12)NC(C)=O)C(=O)N[C@@H](Cc1c[nH]cn1)C(=O)N[C@@H](Cc1cccc(Br)c1)C(N)=O [HT-189, Ac-D-Trp-Met-His-Phe(3-Br)-NH2] (Ac-[dW]MH[Phe(3-Br)]-NH2)",5.95,,,"EC50 [1, 3]: 1.99 µM"
"CSCC[C@H](NC(=O)[C@@H](Cc1c[nH]c2ccccc12)NC(C)=O)C(=O)N[C@@H](CC(C)C)C(=O)N[C@@H](Cc1cccc(Br)c1)C(N)=O [HT-190, Ac-D-Trp-Met-Leu-Phe(3-Br)-NH2] (Ac-[dW]ML[Phe(3-Br)]-NH2)",6.16,,,"EC50 [1, 3]: 4.75 µM"
"CSCC[C@H](NC(=O)[C@H](Cc1c[nH]c2ccccc12)NC(C)=O)C(=O)N[C@@H](CC(=O)O)C(=O)N[C@@H](Cc1c[nH]cn1)C(N)=O [HT-191, Ac-Trp-Met-Asp-His-NH2] (Ac-WMDH-NH2)",,,,"EC50 ([1]; compound alone, bound in μM): > 10 µM; EC50 ([2]; compound together with 10 nM CCK8, bound in μM): > 10 µM"
"CSCC[C@H](NC(=O)[C@H](Cc1c[nH]c2ccccc12)NC(C)=O)C(=O)N[C@@H](CC(=O)O)C(=O)N[C@@H](CC(C)C)C(N)=O [HT-192, Ac-Trp-Met-Asp-Leu-NH2] (Ac-WMDL-NH2)",8.76,,,"EC50 ([1]; compound alone, bound in μM): > 10 µM"
"CSCC[C@H](NC(=O)[C@H](Cc1c[nH]c2ccccc12)NC(C)=O)C(=O)N[C@@H](CC(=O)O)C(=O)N[C@@H](Cc1c[nH]c2ccccc12)C(N)=O [HT-193, Ac-Trp-Met-Asp-Trp-NH2] (Ac-WMDW-NH2)",0.057,,,"EC50 [1, 3]: 0.000814 µM"
"CSCC[C@H](NC(=O)[C@H](Cc1c[nH]c2ccccc12)NC(C)=O)C(=O)N[C@@H](CC(=O)O)C(=O)N[C@@H](CCCCN)C(N)=O [HT-194, Ac-Trp-Met-Asp-Lys-NH2] (Ac-WMDK-NH2)",2.22,,,"EC50 ([1]; compound alone, bound in μM): > 10 µM"
"CSCC[C@H](NC(=O)[C@H](Cc1c[nH]c2ccccc12)NC(C)=O)C(=O)N[C@@H](CC(=O)O)C(=O)N[C@@H](CCCNC(=N)N)C(N)=O [HT-195, Ac-Trp-Met-Asp-Arg-NH2] (Ac-WMDR-NH2)",2.2,,,"EC50 ([1]; compound alone, bound in μM): > 10 µM"
"CSCC[C@H](NC(=O)[C@H](Cc1c[nH]c2ccccc12)NC(C)=O)C(=O)N[C@@H](CC(=O)O)C(=O)N[C@@H](CCC(=O)O)C(N)=O [HT-196, Ac-Trp-Met-Asp-Glu-NH2]",,,,"EC50 ([1]; Fluo-8 calcium flux, bound in μM): > 10 µM; EC50 ([2]; in presence of 10 nM CCK8, bound in μM): > 10 µM"
"CCCC[C@H](NC(=O)[C@H](Cc1c[nH]c2ccccc12)NC(=O)OCC1c2ccccc2-c2ccccc21)C(=O)N[C@@H](CC(=O)O)C(=O)N[C@@H](Cc1cccc(Br)c1)C(N)=O [HT-198, Fmoc-Trp-Nle-Asp-Phe(3-Br)-NH2] (Fmoc-W[Nle]D[Phe(3-Br)]-NH2)",,0.205,0.908,

# Now from value to molecule, other results behind:
"EC50 [2, 4] [µM]","EC50 [1, 5] [µM]",EC50 ([2]; in presence of 10 nM CCK8) [µM],SMILES,other results
,0.616,1.77,"CCCC[C@@H](C(=O)N[C@@H](CC(=O)O)C(=O)N[C@@H](Cc1cccc(Br)c1)C(N)=O)N(C)C(=O)[C@H](Cc1c[nH]c2ccccc12)N(C)C(=O)OCC1c2ccccc2-c2ccccc21 [HT-200, Fmoc-(N-Me-Trp)-(N-Me-Nle)-Asp-Phe(3-Br)-NH2] (Fmoc-[NMeW][NMeNle]D[Phe(3-Br)]-NH2)",
,4.29,3.6,"CSCC[C@H](NC(=O)[C@H](Cc1c[nH]c2ccccc12)NC(C)=O)C(=O)N[C@@H](CC(=O)O)C(=O)N[C@@H](Cc1cccc(Br)c1)C(=O)N[C@@H](C)C(N)=O [HT-201, Ac-D-Trp-Met-Asp-Phe(3-Br)-Ala-NH2]",
,0.0051,0.192,"CCCC[C@H](NC(=O)[C@@H](Cc1c[nH]c2ccccc12)NC(=O)CNC(=O)CCC(=O)O)C(=O)N[C@@H](CC(=O)O)C(=O)N[C@@H](Cc1cccc(Br)c1)C(N)=O [HT-202, (Suc)-Gly-D-Trp-Nle-Asp-Phe(3-Br)-NH2] (Suc-G[dW][Nle]D[Phe(3-Br)]-NH2)",
,0.036,1.59,"CCCCCCCCCCCCCCCC(=O)NCC(=O)N[C@H](Cc1c[nH]c2ccccc12)C(=O)N[C@@H](CCCC)C(=O)N[C@@H](CC(=O)O)C(=O)N[C@@H](Cc1cccc(Br)c1)C(N)=O [HT-203, (Pal)-Gly-D-Trp-Nle-Asp-Phe(3-Br)-NH2] (Palmitoyl-G[dW][Nle]D[Phe(3-Br)]-NH2)",
